{
  "source": "patent US6544541B1",
  "about": "“Devices and compounds for treating arterial restenosis” (Cardiovascular Solutions, Inc., priority 1999, dated 2003)",
  "key": {"[1]": {"test_system": "H4IIE hepatoma cells", "experiment": "MTT staining of viable cells (cell number)", "format": "cell-based", "method": "In this assay, H4IIE cells are plated on 96-well dishes, and incubated in standard growth medium. Separate plates were prepared for comparing the effects of MIBG after 2 or 4 days. At those time points, 200 μl of 5 mg/ml MTT was added to each well, and the cells were incubated an additional 4 hours. The medium was removed and cells were treated with acidified isopropanol and the absorbance read at 570 nm. Increased absorbance is indicative of increases in cell number."}, "[2]": {"test_system": "H4IIE hepatoma cells", "experiment": "flow cytometry, bromodeoxyuridine incorporation in proliferating cells", "format": "cell-based", "conditions": "25 μM MIBG, 48 hours; FIG. 4", "method": "Additional verification that MIBG blocked cell proliferation was obtained using flow cytometry analysis. Proliferating H4IIE cells (<40% confluent) were incubated for 48 hours in the presence or absence (untreated control or containing MIBA) of 25 μM MIBG. The cells were pulse labeled with bromodeoxyuridine (BrdU) 2 hours before harvest to label replicating DNA. Cells were released by trypsinization, collected by centrifugation and permeabilized with Triton X-100 (1%). Replicated DNA was labeled with an anti-BrdU antibody conjugated to FITC (fluorescein isothiocyanate), while total DNA was labeled with propidium iodide. The FITC and propidium iodide labels were detected at 514 nm and 600 nm, respectively, with a Coulter flow cytometer™ (excitation wavelength 488 nm), and number of cells containing these fluors were quantified. The data were plotted as cells with propidium iodide versus cells with BrdU. […] To summarize, the results described above indicate that MIBG is a potent inhibitor of cell proliferation. Furthermore, the cellular process affected by MIBG is active throughout the cell cycle. This conclusion is based on the fact that there is no accumulation of cells at a specific phase of the cell cycle. In addition, it is of note that there is no apparent decrease in cell number or an increase in smaller cells, both characteristics of cell death."}, "[3]": {"test_system": "smooth muscle cells", "conditions": "cited from earlier work"}},
  "data": [
    {"substance": "meta-iodobenzylguanidine [MIBG]", "values": [
      {"measurement": "effect on cell number", "setting": "[1]; 20 μM, 2 or 4 days, FIG. 3", "result": "effective in preventing increases in cell number"},
      {"measurement": "MTT staining", "setting": "[1]; 200 μM, up to 96 hours", "result": "60 % of control values"},
      {"measurement": "bromodeoxyuridine incorporation (DNA synthesis)", "setting": "[2]", "result": "no bromodeoxyuridine incorporation is observed"},
      {"measurement": "DNA synthesis (thymidine uptake)", "setting": "[3]", "result": "had no effect on DNA synthesis"},
      {"measurement": "cell number", "setting": "[3]", "result": "prevents an increase in cell number"},
      {"measurement": "production of collagen type I", "setting": "[3]", "result": "decreased the production of collagen type I"}
    ]}
  ]
}
